Test results published in publication PMC7495477, “IMPROvER: the Integral Membrane Protein Stability Selector” (Scientific Reports, 2020).

Target: T1, ClPPase (membrane-bound pyrophosphatase from Clostridium leptum) ([Clostridium] leptum, UniProt A7VNH8)
T1 construct: gene hppA; N-terminal 8xHis-tag, superfolder GFP and TEV site kept; synthetic gene in pDDGFP; expressed in S. cerevisiae FGY217 membranes; about 700 residues; dimer
T1 sequence (A7VNH8 1-700): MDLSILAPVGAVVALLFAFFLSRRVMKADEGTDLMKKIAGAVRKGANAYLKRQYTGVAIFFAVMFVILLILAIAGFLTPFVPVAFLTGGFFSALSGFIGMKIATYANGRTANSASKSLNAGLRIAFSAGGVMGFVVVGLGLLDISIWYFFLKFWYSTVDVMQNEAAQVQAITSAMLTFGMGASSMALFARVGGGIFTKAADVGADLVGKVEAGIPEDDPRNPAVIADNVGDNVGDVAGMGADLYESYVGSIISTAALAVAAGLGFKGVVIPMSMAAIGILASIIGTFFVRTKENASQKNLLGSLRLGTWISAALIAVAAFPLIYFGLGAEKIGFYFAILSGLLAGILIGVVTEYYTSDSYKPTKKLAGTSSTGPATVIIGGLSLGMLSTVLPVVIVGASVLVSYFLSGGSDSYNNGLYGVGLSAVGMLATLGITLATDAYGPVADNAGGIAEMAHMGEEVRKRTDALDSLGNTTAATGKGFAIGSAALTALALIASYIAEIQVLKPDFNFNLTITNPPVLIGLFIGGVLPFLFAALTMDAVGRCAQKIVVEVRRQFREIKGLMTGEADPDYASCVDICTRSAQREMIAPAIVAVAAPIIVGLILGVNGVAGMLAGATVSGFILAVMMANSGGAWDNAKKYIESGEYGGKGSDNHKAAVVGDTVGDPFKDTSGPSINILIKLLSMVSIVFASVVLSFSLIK
Assay: colorimetric phosphate release assay on yeast membranes
Type: biochemical
Conditions: tris-HCl pH 8, MgCl2, KCl, NaCl, NaF, gramicidin, 10 uL of 2 mM tetrabasic sodium pyrophosphate in 50 uL, 30 C, 10 min

In the case of O=P(O)(O)OP(=O)(O)O [PPi], the “colorimetric phosphate release assay on yeast membranes” value is reported as “The hydrolytic activity of wild-type and variant ClPPase in the membrane was assessed”.
